Experimental data published in US8003812B2, “C10 cyclopentyl ester substituted taxanes” (priority 2004, dated 2011).
Several values for one entry are separate records, joined by “and”; a condition that tells them apart may be missing. Identical values can stand only once.

What was measured:
Sprague-Dawley rats = assay: In vivo toxicity assessment in rats, oral; design: species or system rat; key to Neu Tox score: N (0); −10: Y (1-4); key to PTL R (Recovery) score / L/W Dia score / B/M Dia score / BW R (Recovery) score / WBC R (Recovery) score: −5: N; 0: Y; details: for Total Score AVE: average of 3 rats; for Total Score: per rat, maximum 130; for ALT score / AST score / B/M Dia score / BW score / L/W Dia score / Neu Tox score / WBC R (Recovery) score / WBC score / BUN score / BW R (Recovery) score / PTL R (Recovery) score / PTL score: score per rat
Protocol: Toxicity was assessed in 250-300g Sprague-Dawley rats and three rats were used per dose group. Three dose groups of the test compound, (i.e., 3 mg/kg, 9 mg/kg and 12 mg/kg for intravenous administration; 15 mg/kg, 30 mg/kg and 40 mg/kg) and 1 control group constituted a study. Animals were observed and clinical chemistry data collected at days 4 and 10. Rats were euthanized on day 11 and the nerves were excised and fixed upon euthanization for further examination.
Each rat is scored as described below and a final toxicity score that incorporates all parameters is assigned. A dead rat is assigned a score of zero. Most of the parameters contribute a positive value towards a total possible score of 130. For body weight, white blood cell, and platelet decreases, recovery is considered. […] The total score is divided by 13 to put it on a scale from 0 to 10.

[1] = test system: VM46 (resistant variant of human colon carcinoma HCT 116); assay: In vitro cytotoxicity, cell colony formation assay, VM46; assay type: cell-based; details: 72 h drug incubation
Protocol: The cells were incubated in a CO2 incubator at 37° C. for 5 h for attachment to the bottom of Petri dishes. The compound of the present invention was made up fresh in medium at ten times the final concentration, and then 0.3 mL of this stock solution was added to the 2.7 mL of medium in the dish. The cells were then incubated with drugs for 72 h at 37° C. At the end of incubation the drug-containing media were decanted, the dishes were rinsed with 4 mL of Hank's Balance Salt Solution (HBSS), 5 mL of fresh medium was added, and the dishes were returned to the incubator for colony formation. The cell colonies were counted using a colony counter after incubation for 7 days. Cell survival was calculated and the values of IC50 (the drug concentration producing 50% inhibition of colony formation) were determined for each tested compound.
Identical assessments were carried out using VM46 (resistant variant of human colon carcinoma HCT 116 obtained from Dr. Li-Xi, M.D, Ph.D., California Pacific Medical Center, CA).

[2] = oral, High Dose 40 mg/kg, 40 mg/kg
[3] = oral, Low Dose 15 mg/kg, 15 mg/kg
[4] = oral, Mid Dose 30 mg/kg, 30 mg/kg

CC(=O)OC12COC1CC(O)C1(C)C(=O)C(OC(=O)C3CCCC3)C3=C(C)C(OC(=O)C(O)C(NC(=O)OC(C)C)c4cccs4)CC(O)(C(OC(=O)c4ccccc4)C21)C3(C)C (centres unmarked) [Compound 9091]
Tox Score, Dose 15 mg (Sprague-Dawley rats; Oral, dose 15 mg, scale 0 to 10): 7.4 | Tox Score, Dose 30 mg (Sprague-Dawley rats; Oral, dose 30 mg, scale 0 to 10): 6.7 | Tox Score, Dose 40 mg (Sprague-Dawley rats; Oral, dose 40 mg, scale 0 to 10): 4.6 | Tox Score, Average (Sprague-Dawley rats; Oral, average of 3 dose groups): 6.2 | Tox Score, Weighted Avg (Sprague-Dawley rats; Oral, weighted by dose): 5.8 | Rat tox score PO (Sprague-Dawley rats; PO, summary score, scale 0 to 10): 6 | toxicity profile in the oral rat studies compared with congener (Sprague-Dawley rats; oral): better toxicity profile | Total Score AVE (Sprague-Dawley rats; oral, High Dose 40 mg/kg): 60 | Total Score (Sprague-Dawley rats; [2]): 55 and 65 and 60 | Group score = average of 3 rats/13 (Sprague-Dawley rats; oral, High Dose 40 mg/kg, scale 0 to 10): 4.62 | ALT score (Sprague-Dawley rats; oral, High Dose 40 mg/kg): 20 (<1.25Xcont) | AST score (Sprague-Dawley rats; oral, High Dose 40 mg/kg): 20 (<1.25Xcont) | B/M Dia score (Sprague-Dawley rats; oral, High Dose 40 mg/kg): 0 | BW score (Sprague-Dawley rats; oral, High Dose 40 mg/kg): 0 (≧20%) | L/W Dia score (Sprague-Dawley rats; oral, High Dose 40 mg/kg): 0 | Neu Tox score (Sprague-Dawley rats; oral, High Dose 40 mg/kg): −10 | WBC R (Recovery) score (Sprague-Dawley rats; oral, High Dose 40 mg/kg): 0 | WBC score (Sprague-Dawley rats; oral, High Dose 40 mg/kg): 0 (≧50%) | BUN score (Sprague-Dawley rats; [2]): 10 (≧1.25Xcont) and 20 (<1.25Xcont) (2×) | BW R (Recovery) score (Sprague-Dawley rats; [2]): 0 and −5 (2×) | PTL R (Recovery) score (Sprague-Dawley rats; [2]): −5 and 0 (2×) | PTL score (Sprague-Dawley rats; [2]): 20 (<25%) (2×) and 5 (≧50%) | Total Score AVE (Sprague-Dawley rats; oral, Low Dose 15 mg/kg): 96.7 | Total Score (Sprague-Dawley rats; [3]): 110 and 85 and 95 | Group score = average of 3 rats/13 (Sprague-Dawley rats; oral, Low Dose 15 mg/kg, scale 0 to 10): 7.44 | ALT score (Sprague-Dawley rats; oral, Low Dose 15 mg/kg): 20 (<1.25Xcont) | AST score (Sprague-Dawley rats; oral, Low Dose 15 mg/kg): 20 (<1.25Xcont) | B/M Dia score (Sprague-Dawley rats; oral, Low Dose 15 mg/kg): 5 | BUN score (Sprague-Dawley rats; oral, Low Dose 15 mg/kg): 20 (<1.25Xcont) | BW R (Recovery) score (Sprague-Dawley rats; oral, Low Dose 15 mg/kg): 0 | L/W Dia score (Sprague-Dawley rats; oral, Low Dose 15 mg/kg): 0 | Neu Tox score (Sprague-Dawley rats; oral, Low Dose 15 mg/kg): −10 | PTL R (Recovery) score (Sprague-Dawley rats; oral, Low Dose 15 mg/kg): 0 | WBC R (Recovery) score (Sprague-Dawley rats; oral, Low Dose 15 mg/kg): 0 | BW score (Sprague-Dawley rats; [3]): 20 (<10%) (2×) and 10 (≧10%) | PTL score (Sprague-Dawley rats; [3]): 20 (<25%) (2×) and 10 (≧25%) | WBC score (Sprague-Dawley rats; [3]): 5 (≧25%) and 0 (≧50%) (2×) | Total Score AVE (Sprague-Dawley rats; oral, Mid Dose 30 mg/kg): 86.7 | Total Score (Sprague-Dawley rats; [4]): 85 and 95 and 80 | Group score = average of 3 rats/13 (Sprague-Dawley rats; oral, Mid Dose 30 mg/kg, scale 0 to 10): 6.67 | ALT score (Sprague-Dawley rats; oral, Mid Dose 30 mg/kg): 20 (<1.25Xcont) | AST score (Sprague-Dawley rats; oral, Mid Dose 30 mg/kg): 20 (<1.25Xcont) | B/M Dia score (Sprague-Dawley rats; oral, Mid Dose 30 mg/kg): 0 | BUN score (Sprague-Dawley rats; oral, Mid Dose 30 mg/kg): 20 (<1.25Xcont) | BW R (Recovery) score (Sprague-Dawley rats; oral, Mid Dose 30 mg/kg): 0 | L/W Dia score (Sprague-Dawley rats; oral, Mid Dose 30 mg/kg): 0 | Neu Tox score (Sprague-Dawley rats; oral, Mid Dose 30 mg/kg): −10 | PTL R (Recovery) score (Sprague-Dawley rats; oral, Mid Dose 30 mg/kg): 0 | PTL score (Sprague-Dawley rats; oral, Mid Dose 30 mg/kg): 20 (<25%) | WBC R (Recovery) score (Sprague-Dawley rats; oral, Mid Dose 30 mg/kg): 0 | BW score (Sprague-Dawley rats; [4]): 5 (≧15%) and 10 (≧10%) (2×) | WBC score (Sprague-Dawley rats; [4]): 0 (≧50%) (2×) and 5 (≧25%) | IC50 [1]: 1.9 nM and 1.87 nM
